In article PMC11417994, “Cyclohexanediamine Triazole (CHDT) Functionalization Enables Labeling of Target Molecules with Al^18F/^68Ga/^111In” (Bioconjugate Chemistry, 2024):
Values joined by “and” are separate entries in the source; they are usually repeats but may differ in a detail not shown here. Equal entries are not always repeated.

Key:
PSMA [1] = biological target: T1, PSMA (Homo sapiens, UniProt Q04609); test: Competition binding assay, LNCaP cell homogenates, radioligand [177Lu]Lu-PSMA-617; settings: nonlabeled compounds; [177Lu]Lu-PSMA-617 12 nM; 37 °C, 60 min; Table 2 mean (SEM), Table S3 individual experiments and mean
T1 construct: Detection of endogenous PSMA expression in LNCaP and PC3 cells relative to β-actin expression by Western; host or cells: LNCaP human prostate carcinoma cells (monolayer, spheroids or Potter-Elvehjem homogenates)
Description: The binding affinity of the nonlabeled CHDT-PSMA-1/2/3, PSMA-1007, PSMA-617, and KuE was assessed in competition binding assays using LNCaP cell homogenates (∼1 × 10^6 cells/mL using Potter-Elvehjem) and the radioligand [^177Lu]Lu-PSMA-617 (n = 5 for CHDT-PSMA-1; n = 4 for CHDT-PSMA-2/3; n = 2 for PSMA-1007; n = 8 for PSMA-617; n = 6 for KuE). […] The assays were performed in a final volume of 200 μL. The incubation was stopped by washing the homogenate with cold PBS four times using a filter (Whatman GF/C, 90 min presoaked in 0.3% polyethylenimine) in a cell harvester (Brandel, USA). The radioactivity bound to the filter was measured in a gamma counter. Filter binding was determined for adjacent samples without cell homogenate. The experiments were performed two to four times in triplicates or quadruplicates. Inhibitory constants (Ki) were derived from nonlinear regression according to the model of “One site – Fit Ki” as implemented in GraphPad Prism 10. The Kd value of [^177Lu]Lu-PSMA-617 was determined in saturation binding assays using LNCaP cell homogenates to be 15.2 (±2.1) nM.

[2] = Serum stability assay in human serum (radio-TLC/radio-HPLC); format: in vitro ADME; settings: 37 °C, radio-TLC; for Percentage of intact radioligand after 3 h in human serum: Table 1 mean ± SEM, Table S1 individual values
Description: To investigate the serum stability of the radiolabeled CHDTA-PSMA-1/2/3, human serum (frozen, from male AB clotted whole blood; Sigma-Aldrich/Merck) was centrifuged for 5 min at 20,000g at 4 °C after thawing. The supernatant was sterile filtrated (filter pore 0.2 μm). Four parts serum and one part of radioligand were incubated at 37 °C with shaking. Aliquots were taken after 3 h and for the ^111In-labeled compounds also after 24 and 48 h, and residual intact radiolabeled compound was determined by radio-TLC and/or radio-HPLC. For analysis by radio-HPLC, the aliquots were mixed with Supersol (mixture for protein precipitation that consists of 20% ethanol, 0.5% Triton X-100, 5 mM EDTA and 0.1% saponin)[72] and kept on ice for 5 min. After centrifugation for 5 min at 20,000g at 4 °C, the supernatant was used for radio-HPLC analysis.

PSMA [3] = biological target: T1, PSMA; test: Saturation binding (surface-bound and internalized), intact LNCaP cells as monolayer
Source text: (§1) In addition to assessing the binding affinities for nonlabeled CHDT-PSMA-1/2/3, we sought to characterize the saturation binding of the Al^18F-, ^68Ga-, and ^111In-labeled compounds using LNCaP cells cultured in monolayers and as spheroids. The saturation binding curves for Al[^18F]F-CHDT-PSMA-1/2/3 are depicted in Figure 3, while the graphs for [^18F]PSMA-1007 and ^68Ga- and ^111In-labeled CHDT-PSMA-1/2/3 can be found in Figures S7–S9 in the Supporting Information. The binding parameters (Kd and Bmax) for Al[^18F]F-CHDT-PSMA-1/2/3 and [^18F]PSMA-1007 are summarized in Table 3 (for the ^68Ga- and ^111In-labeled compounds see Tables S4 and S5 in the Supporting Information). For the saturation binding assays, we recorded surface-bound radioligand (named “binding”), which refers to bound radioligand that can be removed by acid wash, and internalized or acid-resistant radioligand (named “internalization”), which refers to radioligand that remains cell-bound after acid wash. Consequently, two saturation binding plots were obtained and two sets of binding parameters (Kd/Bmax and Kd,int/Bmax,int) were derived.
(§2) For saturation assays in well plates, monolayers of LNCaP (sowing 5 × 10^4 cells/well in 48-well plates 2 days before the assay), as well as LNCaP spheroids were incubated with radiolabeled CHDT-PSMA-1/2/3 and PSMA-1007 (0.2 nM to 100 nM) with adjacent samples receiving KuE (0.8 mM) at 37 °C for 2 h. The number of experiments can be derived from the data in the Tables S4, S5, and S7 in the Supporting Information. After removing the incubation medium and washing of cells with ice-cold PBS (containing Mg^2+ and Ca^2+) the surface-bound activity was stripped with 4 °C cold acid-wash buffer (0.2 M glycine, 0.15 M NaCl, pH 3.0) for 10 min. The acid wash buffer was transferred from the wells to measuring tubes, as was the PBS buffer after washing once. Cytosolic activity (internalized radioligand) was determined after treatment with cell lysis buffer (1% SDS in 0.1 M NaOH) at 37 °C for 30 min. Cell surface and cytosolic activity were measured separately in a gamma counter. Time-depending internalization assays were performed only with cells in monolayer. The incubation (radioligand concentration 13 nM) for these assays was terminated after 10 min, 1 and 3 h, with ^111In and ^177Lu additionally after 24 and 48 h at 37 °C, respectively. During the internalization assays adjacent samples received KuE (0.8 mM) for PSMA blocking, methyl-β-cyclodextrin (MβCD; 3 mM) or KuE together with MβCD, 1 h before radioligand application. The number of experiments can be derived from the data of Figure S11 and associated table and from Table S8 in the Supporting Information.
(§3) Dissociations constants (Kd and Kd,int), as well as maximal binding capacities (Bmax and Bmax,int), were derived from specific binding data by nonlinear regression according to the model of “One site-specific binding” as implemented in GraphPad Prism 10. Protein content was determined using the bicinchoninic acid protein assay kit (Pierce, Thermo Scientific) to calculate the binding capacities in pmol/mg and for the time-depending internalization the internalized percent of administrated dose per μg protein (% AD/μg protein).

PSMA [4] = biological target: T1, PSMA; test: Saturation binding (surface-bound and internalized), LNCaP spheroids
Source text: as §1
For the formation of spheroids, the LNCaP cells were incubated overnight in a normal culture bottle with biocompatible nanoparticles ([…] with 80 μL of a suspension consisting of Au, Fe2O3 and poly-L-lysine called Nanoshuttle, Greiner Bio-One GmbH, Germany). After harvesting and cell counting, 10,000 cells/well of a 24-well plate or 7,000 cells/well of a 96-well plate (cell-repellent plates) were sown. The well plates were placed on matching plates with button magnets (Greiner Bio-One GmbH, Germany). The magnetized LNCaP cells formed suitable spheroids that were used after 5 d.
as §2, §3

[5] = n-Octanol/PBS distribution coefficient (logD7.4); format: physicochemical; settings: Table S1 individual values
Description: The log D7.4 values were determined as follows: 500 μL of n-octanol and 450 μL of PBS (pH 7.4) were premixed prior to the addition of 50 μL of the respective radiolabeled compound. The mixture was vigorously stirred for 30 min at 22 °C, and thereafter centrifuged for 5 min at 7,500g at 22 °C. Aliquots of the n-octanol and the aqueous phases were transferred to measuring tubes, and the activity counts in both phases were measured in a gamma counter (Hidex Deutschland Vertrieb GmbH, Germany). The logarithm of the quotient of the activity counts from the n-octanol and the aqueous phase was calculated, which is equal to the log D7.4 value.

[6] = same conditions; cited from earlier work
PSMA [7] = biological target: PSMA; design: method as in PMID 22369515; settings: cited from earlier work
[8] = Al^18F-labeled conjugate or [18F]PSMA-1007, acid-resistant fraction, read-out: Kd,int (internalization)
[9] = Al^18F-labeled conjugate or [18F]PSMA-1007, surface-bound
[10] = Al^18F-labeled conjugate or [18F]PSMA-1007, surface-bound, 37 °C, 2 h, read-out: Kd (binding)
[11] = Al^18F-labeled conjugate or [18F]PSMA-1007, surface-bound, read-out: Kd (binding)
[12] = pH 7.4, radiolabel Al^18F, Table 1 mean ± SEM of three experiments
[13] = pH 7.4, radiolabel ^68Ga, Table 1 mean ± SEM
[14] = pH 7.4, radiolabel ^111In, Table 1 mean ± SEM
[15] = [111In]In-labeled conjugate, surface-bound

T1 sequence (Q04609 whole entry): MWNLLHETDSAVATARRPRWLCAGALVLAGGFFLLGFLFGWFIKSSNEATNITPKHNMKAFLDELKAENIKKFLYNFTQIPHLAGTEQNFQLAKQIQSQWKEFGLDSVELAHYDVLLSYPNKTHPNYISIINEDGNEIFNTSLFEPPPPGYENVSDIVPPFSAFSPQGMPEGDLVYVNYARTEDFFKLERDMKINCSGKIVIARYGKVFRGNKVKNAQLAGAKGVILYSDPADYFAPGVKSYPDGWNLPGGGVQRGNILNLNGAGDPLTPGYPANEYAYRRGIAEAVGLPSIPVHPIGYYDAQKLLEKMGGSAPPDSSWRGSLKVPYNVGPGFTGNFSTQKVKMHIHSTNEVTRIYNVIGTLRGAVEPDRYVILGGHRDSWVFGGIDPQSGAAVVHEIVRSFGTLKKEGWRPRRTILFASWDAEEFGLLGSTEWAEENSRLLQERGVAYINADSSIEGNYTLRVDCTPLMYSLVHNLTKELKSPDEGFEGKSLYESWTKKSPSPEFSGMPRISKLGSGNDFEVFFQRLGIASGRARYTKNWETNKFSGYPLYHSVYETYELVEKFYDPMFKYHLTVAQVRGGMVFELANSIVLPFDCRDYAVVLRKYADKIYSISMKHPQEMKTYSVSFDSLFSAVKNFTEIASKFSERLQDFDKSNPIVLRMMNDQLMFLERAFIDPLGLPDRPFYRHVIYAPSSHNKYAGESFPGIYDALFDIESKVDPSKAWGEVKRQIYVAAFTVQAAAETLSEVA

Ki (PSMA [1])	Percentage of intact radioligand after 3 h in human serum ([2]; radiolabel Al^18F)	Percentage of intact radioligand in human serum after 24 h (*) ([2]; radiolabel ^111In)	Kd (PSMA [3]; [8]) [nM]	Bmax (binding) (PSMA [3]; [9]) [pmol/mg]	Kd (PSMA [3]; [10]) [nM]	Kd (PSMA [4]; [8]) [nM]	Kd (PSMA [4]; [11]) [nM]	logD [5, 12]	logD [5, 13]	logD [5, 14]	Compound	Percentage of intact radioligand after 3 h in human serum ([2]; radiolabel ^68Ga)	Percentage of intact radioligand after 3 h in human serum ([2]; radiolabel ^111In, 3 h)	Percentage of intact radioligand in human serum after 48 h (**) ([2]; radiolabel ^111In)	Bmax,int (internalization) (PSMA [4]; [111In]In-labeled conjugate)	64Cu-transchelation in human serum [6]	further results
7.65 nM and 3.21 nM and 9.15 nM and 12.6 nM and 8.1 nM	99.2% and 99.6% and 99.3 ± 0.1%	98.9% and 99.6% and 99.1 ± 0.2%	14.4 ± 7.3	2.18 ± 0.97	19.7 ± 8.4	36.4 ± 14.6	38.6 ± 25.8	-3.43	-3.09	-3.87	O=C(O)CCC(NC(=O)NC(CCCCNC(=O)[C@H](Cc1ccc2ccccc2c1)NC(=O)[C@H]1CC[C@H](CNC(=O)CCCCn2cc(CN(CC(=O)O)[C@@H]3CCCC[C@H]3N(CC(=O)O)CC(=O)O)nn2)CC1)C(=O)O)C(=O)O (mixture of isomers) [CHDT-PSMA-3]	98.6% and 99.6% and 99.3% and 99.1 ± 0.4%	99.5% and 98.8% and 99.2% and 99.2 ± 0.2%	99.9% and 99.5% and 98.7% and 99.4 ± 0.4%	0.31 pmol/mg and 0.33 pmol/mg and 0.32 pmol/mg	–	Bmax,int (internalization) (PSMA [3]; [111In]In-labeled conjugate): 0.65 pmol/mg and 0.49 pmol/mg and 0.57 pmol/mg; Bmax (binding) (PSMA [3]; [15]): 0.50 pmol/mg and 0.91 pmol/mg and 0.70 pmol/mg; Bmax,int (internalization) (PSMA [4]; [68Ga]Ga-labeled conjugate, only one assay): 0.75 pmol/mg; Bmax (binding) (PSMA [4]; [15]): 0.21 pmol/mg and 0.40 pmol/mg and 0.30 pmol/mg
–	–	–	–	–	–	–	–	–	–	–	O=C(O)CN1CCN(CC(=O)O)CCN(CC(=O)O)CCN(CC(=O)O)CC1 [DOTA]	–	–	–	–	only minimal	–
–	–	–	–	–	–	–	–	–	–	–	O=C(O)CN1CCN(CC(=O)O)CCN(CC(=O)O)CC1 [NOTA]	–	–	–	–	only minimal	–
–	–	–	–	–	–	–	–	–	–	–	O=C(O)CCc1ccc(O)c(CN(CCN(CC(=O)O)Cc2cc(CCC(=O)NCCCCCC(=O)NCCCC[C@H](NC(=O)N[C@@H](CCC(=O)O)C(=O)O)C(=O)O)ccc2O)CC(=O)O)c1 [PSMA-11]	–	–	–	–	–	Ki (PSMA [7]): 12 nM
–	–	–	–	–	–	–	–	–	–	–	O=C(O)CN1CCCN(CC(=O)O)CCN(CC(=O)O)CCCN(CC(=O)O)CC1 [TETA]	–	–	–	–	only minimal	–
–	–	–	–	–	–	–	–	–	–	–	NC12CNCCNCC(N)(CNCCNC1)CNCCNC2 [diamSar]	–	–	–	–	only minimal	–

Compound	Ki (PSMA [1])	Percentage of intact radioligand after 3 h in human serum ([2]; radiolabel Al^18F)	Percentage of intact radioligand in human serum after 24 h (*) ([2]; radiolabel ^111In)	Kd (PSMA [3]; [8]) [nM]	Bmax (binding) (PSMA [3]; [9]) [pmol/mg]	Kd (PSMA [3]; [10]) [nM]	Kd (PSMA [4]; [8]) [nM]	Kd (PSMA [4]; [11]) [nM]	logD [5, 12]	logD [5, 13]	logD [5, 14]	Percentage of intact radioligand after 3 h in human serum ([2]; radiolabel ^68Ga)	Percentage of intact radioligand after 3 h in human serum ([2]; radiolabel ^111In, 3 h)	Percentage of intact radioligand in human serum after 48 h (**) ([2]; radiolabel ^111In)	Bmax,int (internalization) (PSMA [4]; [111In]In-labeled conjugate)	64Cu-transchelation in human serum [6]	further results
O=C(O)CCC(NC(=O)NC(CCCCNC(=O)Cn1cc(CN(CC(=O)O)[C@@H]2CCCC[C@H]2N(CC(=O)O)CC(=O)O)nn1)C(=O)O)C(=O)O (mixture of isomers) [CHDT-PSMA-1]	85.5 nM and 120 nM and 86.9 nM and 152 nM and 132 nM and 115 nM	98.9% and 99.0% and 98.8% and 98.9 ± 0.1%	99.8% and 99.5% and 99.6 ± 0.1%	18.4 ± 7.3	1.87 ± 0.57	26.4 ± 11	37.4 ± 10.7	41.5 ± 26.4	-3.6	-3.36	-4.23	98.8% and 94.4% and 96.6 ± 2.2 %	99.7% and 99.3% and 99.4% and 99.5 ± 0.1%	99.7% and 99.3% and 98.9% and 99.3 ± 0.2%	0.03 pmol/mg and 0.06 pmol/mg and 0.04 pmol/mg	–	Bmax (binding) (PSMA [4]; [9]): 1.49 ± 0.36 pmol/mg
O=C(O)CCC(NC(=O)NC(CCCCNC(=O)[C@@H](Cc1cccc2ccccc12)NC(=O)CCCCCn1cc(CN(CC(=O)O)[C@@H]2CCCC[C@H]2N(CC(=O)O)CC(=O)O)nn1)C(=O)O)C(=O)O (mixture of isomers) [CHDT-PSMA-2]	48.1 nM and 71.2 nM and 40.5 nM and 34.5 nM and 49 nM	99.3% and 98.7% and 99.1 ± 0.2%	98.9% and 98.8% and 97.6% and 98.4 ± 0.4%	14.4 ± 4.8	1.33 ± 0.10	12.9 ± 4	15.7 ± 0.8	15.8 ± 4.4	-3.34	-3.11	-3.44	97.7% and 97.4% and 97.0% and 97.6 ± 0.1%	99.6% and 98.3% and 98.6% and 98.8 ± 0.4%	99.9% and 98.5% and 97.6% and 98.7 ± 0.7%	0.20 pmol/mg and 0.10 pmol/mg and 0.15 pmol/mg	–	Bmax,int (internalization) (PSMA [3]; [111In]In-labeled conjugate): 0.25 pmol/mg and 0.17 pmol/mg and 0.21 pmol/mg; Bmax (binding) (PSMA [4]; [9]): 1.07 ± 0.13 pmol/mg; Bmax (binding) (PSMA [4]; [15]): 0.15 pmol/mg and 0.25 pmol/mg and 0.20 pmol/mg
